Assay results as given in US20240279338A1, “Combination Treatment of Cancer” (Ares Trading S.A., priority 2021, published 2024).

Legend:
ADORA2A (A2A) = test: RNAseq gene expression in MC38 tumors; type: in vivo, mice; conditions: bintrafusp alfa 24.6 mg/kg iv, Day 6 post treatment, vs isotype
Procedure: (§1) FIG. 4: Bintrafusp alfa increases expression of A2B in CD73h adenosine-rich 4T1 tumor model, but not in CD73^low adenosine-low MC38 tumor model. For the 4T1 tumor model, female BALB/c mice were inoculated with 2×10^5 4T1 cells into the right mammary fat pad. For the MC38 tumor model, female C57BL/6 mice were inoculated subcutaneously in the right flank with MC38 cells (1×10^6). Animals in both studies were randomized into the groups and treatments started when the average tumor size reached approximately 100-150 mm^3. For both models, there were 15 mice in each group. The animals were treated with isotype control (20 mg/kg, iv) or bintrafusp alfa (24.6 mg/kg, iv) on days 0, 1, and 2. Tumors were harvested on Day 6 post treatment start, flash frozen, and used for RNASeq analysis. Gene expression levels of (A) NT5E, (B) ADORA2A (A2A), and (C) ADORA2B (A2B) are presented as mean±SEM. P-values were calculated using two-way ANOVA.
(§2) To determine whether bintrafusp alfa treatment modulates expression of A2A or A2B receptors or NT5E (gene encoding CD73), mice with established 4T1 and MC38 tumors were treated with 20 mg/kg isotype antibody or 24.6 mg/kg bintrafusp alfa.

NT5E (CD73) = test: RNAseq gene expression in MC38 tumors; type: in vivo, mice; conditions: bintrafusp alfa 24.6 mg/kg iv, Day 6 post treatment, vs isotype
Procedure: as §1, §2

H22 cells = test: CD73low H22 syngeneic tumor model, tumor growth; type: in vivo; conditions: H22, female BALB/c mice; Day 16 post treatment initiation; Compound A 300 mg/kg po BID; bintrafusp alfa 24.6 mg/kg iv days 0, 3, 6
Procedure: (§3) Female BALB/c mice were inoculated with 1×10^6 H22 cells in the right upper flank and were treated with Compound A (300 mg/kg po, BID), bintrafusp alfa (24.6 mg/kg iv, days 0, 3, 6), Compound A+bintrafusp alfa, when average tumor volume reached approximately 55 mm3. Vehicle (po, BID) and isotype control antibody injections (20 mg/kg iv, days 0, 3, 6) were used as controls. (A) Average tumor volumes with SEM, and (B) individual tumor volumes are presented. Tumor volume data were analyzed using two-way ANOVA followed by Tukey's multiple comparison test.
(§4) To determine whether combined treatment with the dual A2A/A2B receptor inhibitor “Compound A” ((S)-7-Oxa-2-aza-spiro[4.5]decane-2-carboxylic acid [7-(3,6-dihydro-2H-pyran-4-yl)-4-methoxy-thiazolo[4,5-c]pyridin-2-yl]-amide) and bintrafusp alfa can inhibit tumor growth in either CD73^hi or CD73^low models, tumor growth was monitored in […] syngeneic tumor models. Animals were inoculated with either CD73^hi tumor cells (4T1, E0771, or EMT6) or with CD73^low MC38, H22 or MBT2 tumor cells. For all tumor models, animals were treated with either 1) vehicle and isotype, 2) Compound A and isotype, 3) vehicle and bintrafusp alfa, or 4) Compound A and bintrafusp alfa. […]

EMT6 cells = test: CD73hi EMT6 syngeneic tumor model, tumor growth; type: in vivo, mice; conditions: Day 10 post treatment initiation, Compound A 300 mg/kg po BID alone
Procedure: as §3, with “with 2.5×10^5 EMT6” for “with 1×10^6 H22”, “cells into” for “cells in”, “right mammary fat pad” for “right upper flank”, “approximately 60 mm^3.” for “approximately 55 mm3.”
as §4

Row | Compound | expression of A2A (ADORA2A (A2A)) | expression of NT5E (CD73) (NT5E (CD73)) | tumor growth inhibition, T/C (H22 cells) | tumor growth inhibition (EMT6 cells)
1 | bintrafusp alfa: anti-PD-L1:TGFβRII fusion protein, CAS 1918149-01-5; human IgG1 antibody against PD-L1 fused to extracellular domain of human TGF-β receptor II | no changes | no changes | 34.4% | –
2 | COc1ncc(C2=CCOCC2)c2sc(NC(=O)N3CC[C@@]4(CCCOC4)C3)nc12 [Compound A, (S)-7-Oxa-2-aza-spiro[4.5]decane-2-carboxylic acid [7-(3,6-dihydro-2H-pyran-4-yl)-4-methoxy-thiazolo[4,5-c]pyridin-2-yl]-amide] | – | – | – | did not show tumor growth inhibition
